Measurements published in patent US20240408119A1, “DELIVERY OF THERAPEUTIC ALKALOID COMPOUNDS” (priority 2022, published 2024).
Read-outs that look alike come from different tables or passages of the source. Marks after values point to notes of the source that are not given here.

What was measured:
[1] = Plasma Stability Assay (Example A3), rat plasma; format: in vitro ADME; details: 10 μM, 37° C.; for Rat Plasma Prodrug (%): prodrug remaining; for Rat Plasma Metabolite (%): metabolite (mesembrine, 001) accumulated
Source text: (§1) The data is represented in the table below.

[2] = Metabolic Stability in Human Hepatocytes; format: in vitro ADME; details: cryopreserved human hepatocytes, 37° C.
Experimental: A 2.5 uL aliquot of 100 μM test compound was incubated with 247.5 uL of cryopreserved hepatocytes suspended in serum-free incubation medium at 5×10^5 viable cells/mL. The mixture was incubated at 37° C. and shaken at 500 rpm for the designated time points (0.5, 15, 30, 60, 90, or 120 min). At each time point, 25 μL aliquot of incubation mixture was transferred to 125 μL of cold acetonitrile containing internal standard, followed by centrifugation for 30 min at 3,220 g. 100 μL of supernatant was mixed with 100 μL of distilled water for analysis by LC-MS/MS. Peak areas were determined from extracted ion chromatograms and in vitro half-life (t1/2) was determined from the concentration vs time regression slope, in vitro t1/2=0.693/k. Conversion of the in vitro t1/2 (in min) into the in vitro intrinsic clearance (in vitro CLint, in μL/min/10^6 cells) is done using: in vitro CLint=kV/N.

[3] = Plasma Stability Assay (Example A3), human plasma; format: in vitro ADME; details: 10 μM, 37° C.; for Human Plasma Prodrug (%): prodrug remaining; for Human Plasma Metabolite (%): metabolite (mesembrine, 001) accumulated
Source text: as §1

[4] = format: in vitro ADME, human; details: 5 μM, 37° C.; for Human Plasma Metabolite (%): metabolite (mesembrine) accumulated; for Human Plasma Prodrug (%): prodrug remaining
Experimental: (§2) Each test was carried out in duplicate for each time point; 0 min, 15 min, 30 min, 60 min, 120, 240 min. […]

[5] = in vivo; format: in vivo, mouse; details: for half-life / C0 / clearance / Vd: iv, 2 mg/kg; for C0: back extrapolated; for Vd: read-out: Vss
Experimental: Total fifteen male mice were used in this study with n=3 mice/time point with sparse sampling study design. Animals were administered through intravenous route with solution formulation of 321 at 2 mg/kg dose.
The extraction procedure for plasma/brain samples and the spiked plasma/brain calibration standards were identical (PMSF Stabilized Plasma and Brain used for Preparation of calibration standards): A 20 μL of study sample plasma/brain or spiked plasma/brain calibration standard was added to individual pre-labeled micro-centrifuge tubes followed by 200 μL of internal standard prepared in acetonitrile (Rosuvastatin, 50 ng/mL) was added except for blank, where 200 μL of acetonitrile was added. Samples were vortexed for 5 minutes. Samples were centrifuged for 10 minutes at a speed of 4000 rpm at 4° C. Following centrifugation, 200 μL of clear supernatant was transferred in 96 well plates and analyzed using LC-MS/MS.
Brain samples were diluted (1-part of tissue: 2-part of buffer) and homogenized. The homogenate was submitted for bioanalysis and the concentrations (ng/mL) received were corrected with dilution factor (3×) and the final reported concentrations were represented in ng/g.
The plasma and brain concentration-time data of 321 and 001 were used for the pharmacokinetic analysis.
LLOQ: 321: 1.02 ng/mL for plasma and brain 001: 1.01 ng/mL for plasma and brain

[6] = format: in vitro ADME, mouse; details: 5 μM, 37° C.; for Mouse Plasma Metabolite (%): metabolite (mesembrine) accumulated; for Mouse Plasma Prodrug (%): prodrug remaining
Experimental: as §2

[7] = 321 after 321 IV 2 mg/kg, 0.08 h
[8] = 321 after 321 IV 2 mg/kg, 0.25 h
[9] = 321 after 321 IV 2 mg/kg, 0.5 h
[10] = male, C57BL/6, mouse, in vivo, 321 in brain after 321 IV 2 mg/kg
[11] = male, C57BL/6, mouse, in vivo, 321 in plasma after 321 IV 2 mg/kg

COc1ccc([C@@]23CCC(OP(=O)(O)OCOC(=O)C(C)(C)C)=C[C@@H]2N(C)CC3)cc1OC [Compound 409, [[(3aS,7aS)-3a-(3,4-dimethoxyphenyl)-1-methyl-3,4,5,7a-tetrahydro-2H-indol-6-yl]oxy-hydroxy-phosphoryl]oxymethyl 2,2-dimethylpropanoate]
Rat Plasma Prodrug (%) ([1]; 0 min): 100.0% | Rat Plasma Prodrug (%) ([1]; 10 min): 89.9% | Rat Plasma Prodrug (%) ([1]; 30 min): 81.2% | Rat Plasma Prodrug (%) ([1]; 60 min): 71.0% | Rat Plasma Prodrug (%) ([1]; 120 min): 44.5% | Rat Plasma Prodrug (%) ([1]; 240 min): 22.7% | half-life at 1 μM [2]: 1540 min | hepatocyte CLint at 1 μM [2]: 1.1 µL/min/1e6 cells | Human Plasma Prodrug (%) ([3]; 0 min): 100.0% | Human Plasma Prodrug (%) ([3]; 10 min): >99% | Human Plasma Prodrug (%) ([3]; 30 min): 95.2% | Human Plasma Prodrug (%) ([3]; 60 min): 93.0% | Human Plasma Prodrug (%) ([3]; 120 min): 87.3% | Human Plasma Prodrug (%) ([3]; 240 min): 75.8%

COc1ccc([C@@]23CCC(OP(=O)(OC(C)C)OC(C)C)=C[C@@H]2N(C)CC3)cc1OC [Compound 321, [(3aS,7aS)-3a-(3,4-dimethoxyphenyl)-1-methyl-3,4,5,7a-tetrahydro-2H-indol-6-yl]diisopropyl phosphate]
Rat Plasma Metabolite (%) ([1]; 0 min): 23.9% | Rat Plasma Metabolite (%) ([1]; 10 min): 53.7% | Rat Plasma Metabolite (%) ([1]; 30 min): 56.0% | Rat Plasma Metabolite (%) ([1]; 60 min): 59.1% | Rat Plasma Metabolite (%) ([1]; 120 min): 59.3% | Rat Plasma Metabolite (%) ([1]; 240 min): 56.7% | Rat Plasma Prodrug (%) ([1]; 0 min): 100.0% | Rat Plasma Prodrug (%) ([1]; 10 min): 74.0% | Rat Plasma Prodrug (%) ([1]; 30 min): 69.8% | Rat Plasma Prodrug (%) ([1]; 60 min): 69.2% | Rat Plasma Prodrug (%) ([1]; 120 min): 68.4% | Rat Plasma Prodrug (%) ([1]; 240 min): 65.7% | Human Plasma Metabolite (%) ([4]; 0 min): 0.08% | Human Plasma Metabolite (%) ([4]; 15 min): 0.29% | Human Plasma Metabolite (%) ([4]; 30 min): 0.40% | Human Plasma Metabolite (%) ([4]; 60 min): 0.49% | Human Plasma Metabolite (%) ([4]; 120 min): 0.67% | Human Plasma Metabolite (%) ([4]; 240 min): 0.61% | Human Plasma Prodrug (%) ([4]; 0 min): 100% | Human Plasma Prodrug (%) ([4]; 15 min): >99% | Human Plasma Prodrug (%) ([4]; 30 min): >99% | Human Plasma Prodrug (%) ([4]; 60 min): >99% | Human Plasma Prodrug (%) ([4]; 120 min): >99% | Human Plasma Prodrug (%) ([4]; 240 min): 78.2% | brain concentrations quantifiable up to ([5]; 321 after 321 IV 2 mg/kg): ≤ 0.5 h | plasma concentrations quantifiable up to ([5]; 321 after 321 IV 2 mg/kg): up to 2 h | Brain concentrations (mean) [5, 7]: 99.58 ng/g | Plasma concentrations (mean) [5, 7]: 304.66 ng/mL | Brain concentrations (mean) [5, 8]: 37.11 ng/g | Plasma concentrations (mean) [5, 8]: 104.69 ng/mL | Brain concentrations (mean) [5, 9]: 7.89 ng/g | Plasma concentrations (mean) [5, 9]: 26.16 ng/mL | Plasma concentrations (mean) ([5]; 321 after 321 IV 2 mg/kg, 1 h): 8.57 ng/mL | Plasma concentrations (mean) ([5]; 321 after 321 IV 2 mg/kg, 2 h, average of two values): 1.38^d ng/mL | AUClast ([5]; 321 in brain after 321 IV 2 mg/kg): 27.57 ng·h/g | half-life [5, 10]: 6.6 min | C0 [5, 10]: 0.158 µg/mL | clearance ([5]; male, C57BL/6, mouse, in vivo, 321 in brain after 321 IV 2 mg/kg, flagged NR (not reportable, very high vs liver blood flow)): 69.2 L/h/kg | Vd [5, 10]: 10.3 L/kg | clearance [5, 11]: 20.4 L/h/kg | half-life [5, 11]: 21.6 min | C0 [5, 11]: 0.504 µg/mL | Vd [5, 11]: 4.8 L/kg | Kp ([5]; male, C57BL/6, mouse, in vivo, 321 after 321 IV 2 mg/kg, read-out: Brain-Kp): 0.28 | AUC(0-t) [5, 11]: 0.0971 µg·h/mL | half-life at 1 μM [2]: 23 min | hepatocyte CLint at 1 μM [2]: 59.4 µL/min/1e6 cells | Mouse Plasma Metabolite (%) ([6]; 0 min): 11.9% | Mouse Plasma Metabolite (%) ([6]; 15 min): 28.4% | Mouse Plasma Metabolite (%) ([6]; 30 min): 38.3% | Mouse Plasma Metabolite (%) ([6]; 60 min): 51.1% | Mouse Plasma Metabolite (%) ([6]; 120 min): 53.7% | Mouse Plasma Metabolite (%) ([6]; 240 min): 55.2% | Mouse Plasma Prodrug (%) ([6]; 0 min): 100% | Mouse Plasma Prodrug (%) ([6]; 15 min): 77.3% | Mouse Plasma Prodrug (%) ([6]; 30 min): 74.5% | Mouse Plasma Prodrug (%) ([6]; 60 min): 58.4% | Mouse Plasma Prodrug (%) ([6]; 120 min): 43.1% | Mouse Plasma Prodrug (%) ([6]; 240 min): 31.7% | Human Plasma Metabolite (%) ([3]; 0 min): 0.40% | Human Plasma Metabolite (%) ([3]; 10 min): 0.50% | Human Plasma Metabolite (%) ([3]; 30 min): 0.57% | Human Plasma Metabolite (%) ([3]; 60 min): 0.65% | Human Plasma Metabolite (%) ([3]; 120 min): 0.82% | Human Plasma Metabolite (%) ([3]; 240 min): 0.96% | Human Plasma Prodrug (%) ([3]; 0 min): 100.0% | Human Plasma Prodrug (%) ([3]; 10 min): >99% | Human Plasma Prodrug (%) ([3]; 30 min): >99% | Human Plasma Prodrug (%) ([3]; 60 min): 98.1% | Human Plasma Prodrug (%) ([3]; 120 min): 94.5% | Human Plasma Prodrug (%) ([3]; 240 min): 96.3%

COc1ccc([C@@]23CCC(OP4(=O)OCCCO4)=C[C@@H]2N(C)CC3)cc1OC [Compound 422, 2-(((3aS,7aS)-3a-(3,4-dimethoxyphenyl)-1-methyl-2,3,3a, 4,5,7a-hexahydro-1H-indol-6-yl)oxy)-1,3,2-dioxaphosphinane 2-oxide]
Rat Plasma Prodrug (%) ([1]; 0 min): 100.0% | Rat Plasma Prodrug (%) ([1]; 10 min): >99% | Rat Plasma Prodrug (%) ([1]; 30 min): >99% | Rat Plasma Prodrug (%) ([1]; 60 min): >99% | Rat Plasma Prodrug (%) ([1]; 120 min): 91.0% | Rat Plasma Prodrug (%) ([1]; 240 min): 76.8% | half-life at 1 μM [2]: 366 min | hepatocyte CLint at 1 μM [2]: 3.9 µL/min/1e6 cells | Human Plasma Prodrug (%) ([3]; 0 min): 100.0% | Human Plasma Prodrug (%) ([3]; 10 min): 89.4% | Human Plasma Prodrug (%) ([3]; 30 min): 73.1% | Human Plasma Prodrug (%) ([3]; 60 min): 62.4% | Human Plasma Prodrug (%) ([3]; 120 min): 39.2% | Human Plasma Prodrug (%) ([3]; 240 min): 19.6%

COc1ccc([C@@]23CCC(OP4(=O)OC(C)CC(C)O4)=C[C@@H]2N(C)CC3)cc1OC (stereo partly drawn) [Compound 423, 2-(((3aS,7aS)-3a-(3,4-dimethoxyphenyl)-1-methyl-2,3,3a, 4,5,7a-hexahydro-1H-indol-6-yl)oxy)-4,6-dimethyl-1,3,2-dioxaphosphinane 2-oxide]
Rat Plasma Prodrug (%) ([1]; 0 min): 100.00% | Rat Plasma Prodrug (%) ([1]; 10 min): >99% | Rat Plasma Prodrug (%) ([1]; 30 min): >99% | Rat Plasma Prodrug (%) ([1]; 60 min): 91.05% | Rat Plasma Prodrug (%) ([1]; 120 min): 83.29% | Rat Plasma Prodrug (%) ([1]; 240 min): 67.32% | half-life at 1 μM [2]: 57 min | hepatocyte CLint at 1 μM [2]: 24.4 µL/min/1e6 cells | Human Plasma Prodrug (%) ([3]; 0 min): 100.00% | Human Plasma Prodrug (%) ([3]; 10 min): >99% | Human Plasma Prodrug (%) ([3]; 30 min): >99% | Human Plasma Prodrug (%) ([3]; 60 min): 98.77% | Human Plasma Prodrug (%) ([3]; 120 min): 97.80% | Human Plasma Prodrug (%) ([3]; 240 min): 89.67%

COc1ccc([C@@]23CCC(OP(=O)(O)OCOC(=O)C(C)C)=C[C@@H]2N(C)CC3)cc1OC [Compound 408, [[(3aS,7aS)-3a-(3,4-dimethoxyphenyl)-1-methyl-3,4,5,7a-tetrahydro-2H-indol-6-yl]oxy-hydroxy-phosphoryl]oxymethyl 2-methylpropanoate]
Rat Plasma Prodrug (%) ([1]; 0 min): 100.0% | Rat Plasma Prodrug (%) ([1]; 10 min): 63.8% | Rat Plasma Prodrug (%) ([1]; 30 min): 29.2% | Rat Plasma Prodrug (%) ([1]; 60 min): 8.2% | Rat Plasma Prodrug (%) ([1]; 120 min): 0.8% | Rat Plasma Prodrug (%) ([1]; 240 min): 0.0% | half-life at 1 μM [2]: 220 min | hepatocyte CLint at 1 μM [2]: 6.4 µL/min/1e6 cells | Human Plasma Prodrug (%) ([3]; 0 min): 100.0% | Human Plasma Prodrug (%) ([3]; 10 min): 94.2% | Human Plasma Prodrug (%) ([3]; 30 min): 82.6% | Human Plasma Prodrug (%) ([3]; 60 min): 69.1% | Human Plasma Prodrug (%) ([3]; 120 min): 45.4% | Human Plasma Prodrug (%) ([3]; 240 min): 23.5%
